Test results: patent US5459257A, “Sulfated oligoglycoside acylate and antiviral agent containing the same as active ingredient” (priority 1993, dated 1995)

Assays:
HIV [1] = assay: anti-HIV activity, inhibition of HIV-induced cytopathicity in MT-4 cells (MTT method); assay type: cell-based; details: for EC50: HIV-infected MT-4 cells, MOI 0.01, 5 days, 37° C.; for S.I. (CC50/EC50): MT-4 cells, ratio of CC50 to EC50, 7200 min
Method: (§1) A test compound having various concentrations were placed in a 96-well microtiter plate along with HIV-infected MT-4 cells (2.5×10^4 /well, MOI (multiplicity of infection): 0.01) immediately after infection thereof. In order to ascertain the cytotoxicty of the test compound with respect to MT-4 cells, mock-infected (non-infected) cells were cultured in an identical manner along with the test compound of various concentrations. After incubating for 5 days at 37° C. in a CO2 atmosphere, the number of living cells were determined by using MTT method. The anti-HIV activity was evaluated with the method written by R. Pauwels, et al. (R. Pauwels, et al., J. Virol Methods, 20, 309 to 321 (1988)).
The anti-HIV activity is shown in terms of EC50 (50% effective concentration) that is the concentration of a compound which inhibits 50% of HIV-induced cytopathicity in MT-4 cells, and the cytotoxity is shown in terms of CC50 (cytotoxic concentration) that is the concentration of a compound which reduces 50% of viability of mock-infected MT-4 cells. Selectivity Index (S.I.) is expressed by the ratio of CC50 to EC50 (CC50 /EC50).

MT-4 cells = assay: cytotoxicity in mock-infected MT-4 cells (MTT method); assay type: cell-based
Method: as §1, with “method.” for “method. The anti-HIV activity was evaluated with the method written by R. Pauwels, et al. (R. Pauwels, et al., J. Virol Methods, 20, 309 to 321 (1988)).”
Selectivity Index (S.I.) is expressed by the ratio of CC50 to EC50 (CC50 /EC50).

rabbit blood = assay: effects on blood clotting, whole blood clotting time; details: for clotting time: rabbit whole blood
Method: Sodium heparin (Kodama) used as positive control was diluted with saline at the concentration of 120 U/ml.
Japan White rabbits (supplier: Kitayama Labes), 4 months old, were used for this study.
Cardiopuncture was performed in a rabbit, and at when blood was started to be flowed into the syringe, the timer was made to start. The whole blood collected was carefully flowed into double glass tubes incubated. After putting the samples calmly for 3 minutes, the first tube was tilted gently every 30 seconds and the current of blood was observed. When blood in the first tube was clotted, the same operation was performed in the second tube. When the blood was clotted in the second tube, the timer was stopped, and this end point was recorded as whole blood clotting time.

HIV [2] = assay: anti-HIV activity of serum after intravenous administration to mice; assay type: in vivo; details: for reciprocal number of concentration of the compound at 50% cell viability: mouse serum, 32 mg/kg
Method: The effects of Compound 6 and dextran sulfate in vivo experiment were studied by duration of the activity using mouse.
Compound 6 were dissolved with saline at the concentration of 32 mg/10 ml. Dextran sulfate (Control compound: M.W=8000: Sigma) were dissolved with it at the concentration of 80 mg/10 ml.
Mouse (Crj:CD-1(ICR)) (supplier: Charles River Japan, Inc.), six weeks old were used for this study.
Four groups (for 1, 4, 6 and 12 hours) of mice (one group: three mice) were used for the in vivo experiments of the Compound 6.
The twelve mice were given an intravenous injection of the compound (in the tail vein; Dose 32 mg/kg).
Three groups (for 20, 40 and 60 minutes) of mice (one group: two mice) were used for dextran sulfate such a method as described in Compound 6 (Dose 80 mg/kg). At decided times after injection, the blood was collected and serum was separated by centrifugation at low speed.
The serum samples were stored at -80° C. until assayed. Each serum sample was diluted with culture medium to evaluate the effective concentration (the maximum concentration was set up to 10%). The method of this anti-HIV activity evaluation was the same one as described in EXAMPLE 49.
(*)Various concentration of the serum solutions (diluted with the medium
and the maximum concentration is 10%) were used for evaluation of the
shown. That is why the higher the reciprocal number, the higher the […]

[3] = mock-infected MT-4 cells, 5 days, 37° C., 7200 min
[4] = mock-infected MT-4 cells, 5 days, 37° C.

Substance | EC50 (HIV [1]) [mg/L] | S.I. (CC50/EC50) (HIV [1]) | CC50 (MT-4 cells; [3]) | CC50 (MT-4 cells; [4]) | further results
Sulfated n-dodecyl O-4-fluorobenzoyl-β-D-laminaripentaoside [Compound 4] | 1.7 | 509 | 866 µg/mL |  | 
Sulfated 4-n-octyloxyphenyl O-octanoyl-β-D-laminaripentaoside [Compound 26] | 1.7 | > 588 |  | > 1,000 μg/ml | 
Sulfated dl-α-tocopheryl O-n-dodecanoyl-β-D-laminaripentaoside [Compound 37] | 25.1 | 3 | 77.4 µg/mL |  | 
Sulfated dl-α-tocopheryl O-n-butyryl-β-D-laminaripentaoside [Compound 31] | 1.1 | 195 | 214 µg/mL |  | 
Sulfated dl-α-tocopheryl O-benzoyl-β-D-laminaripentaoside [Compound 44] | 0.52 | 1,317 | 685 µg/mL |  | 
Sulfated n-dodecyl O-4-fluorobenzoyl-β-D-laminaripentaoside [Compound 3] | 2.0 | 482 |  |  | CC50 (MT-4 cells; human, mt-4 cells, 120 h): 964 µg/mL
Sulfated 4-n-octyloxyphenyl O-benzoyl-β-D-laminaripentaoside [Compound 11] | 4.7 | 119 |  | 557 µg/mL | 
Heparin [reference compound] |  |  |  |  | clotting time (rabbit blood; 120 U/ml, positive control): > 60 min
Sulfated dl-α-tocopheryl O-n-octanoyl-β-D-laminaripentaoside [Compound 35] | 20.2 | 26 | 519 µg/mL |  | 
Sulfated dl-α-tocopheryl O-n-butyryl-β-D-galactosyl-(1→4)-β-D-galactosyl-(1→4)-β-D-glucoside [Compound 42] | 3.6 | 174 |  | 627 µg/mL | 
Sulfated dl-α-tocopheryl O-benzoyl-β-D-laminaripentaoside [Compound 45] | 1.8 | 357 | 642 µg/mL |  | 
Sulfated dl-α-tocopheryl O-n-butyryl-β-D-laminaripentaoside [Compound 30] | 0.59 | 1,124 |  | 663 µg/mL | 
Sulfated 4-t-octylphenyl O-benzoyl-β-D-laminaripentaoside [Compound 14] | 16.4 | 119 |  | 557 µg/mL | 
Sulfated dl-α-tocopheryl O-n-dodecanoyl-β-D-laminaripentaoside [Compound 38] | 18.7 | 4 | 81.1 µg/mL |  | 
Sulfated n-dodecyl O-2,4-difluorobenzoyl-β-D-laminaripentaoside [Compound 7] | 2.1 | > 476 |  | > 1,000 μg/ml | 
Sulfated n-dodecyl O-benzoyl-β-D-laminaripentaoside [Compound 2] | 0.4 | > 2,500 | > 1,000 μg/ml |  | 
Sulfated dl-α-tocopheryl O-benzoyl-β-D-laminaripentaoside [Compound 46] | 3.9 | 41 | 160 µg/mL |  | 

Substance | EC50 (HIV [1]) [mg/L] | S.I. (CC50/EC50) (HIV [1]) | CC50 (MT-4 cells; [3]) | CC50 (MT-4 cells; [4]) | further results
Sulfated dl-α-tocopheryl O-n-butyryl-β-D-galactosyl-(1→4)-β-D-galactosyl-(1→4)-β-D-glucoside [Compound 41] | 5.4 | 109 | 586 µg/mL |  | 
Sulfated n-dodecyl O-4-fluorobenzoyl-β-D-laminaripentaoside [Compound 5] | 1.3 | 758 | 986 µg/mL |  | 
Sulfated dl-α-tocopheryl O-n-docosanoyl-β-D-laminaripentaoside [Compound 40] | 20.6 | 27 |  | 546 µg/mL | 
Sulfated dl-α-tocopheryl O-n-octanoyl-β-D-laminaripentaoside [Compound 33] | 0.64 | 998 | 639 µg/mL |  | 
Sulfated dl-α-tocopheryl O-n-butyryl-β-D-laminaripentaoside [Compound 32] | 6.4 | 18 | 115 µg/mL |  | 
Sulfated 4-n-octylphenyl O-benzoyl-β-D-laminaripentaoside [Compound 8] | 6.8 | 82 |  | 556 µg/mL | 
Sulfated 4-n-octyloxyphenyl O-4-fluorobenzoyl-β-D-laminaripentaoside [Compound 12] | 16.1 | 33 |  | 530 µg/mL | 
Sulfated 4-n-heptylphenyl O-benzoyl-β-D-galactosyl-(1→4)-β-D-galactosyl-(1→4)-β-D-glucoside [Compound 18] | 14.5 | 47 |  | 634 µg/mL | 
Sulfated 4-t-octylphenyl O-benzoyl-β-D-galactosyl-(1→4)-β-D-galactosyl-(1→4)-β-D-glucoside [Compound 17] | 76.3 | 6 |  | 484 µg/mL | 
Sulfated dl-α-tocopheryl O-n-dodecanoyl-β-D-laminaripentaoside [Compound 39] | 15.3 | 38 | 586 µg/mL |  | 
Sulfated 4-n-octylphenyl O-4-fluorobenzoyl-β-D-laminaripentaoside [Compound 9] | 14.1 | 35 |  | 496 µg/mL | 
Sulfated dl-α-tocopheryl O-n-octanoyl-β-D-laminaripentaoside [Compound 34] | 16.0 | 30 | 472 µg/mL |  | 
Sulfated dl-α-tocopheryl O-n-dodecanoyl-β-D-laminaripentaoside [Compound 36] | 3.9 | 83 | 323 µg/mL |  | 
Sulfated n-dodecyl O-2,4-difluorobenzoyl-β-D-laminaripentaoside [Compound 6] | 1.8 | > 556 |  | > 1,000 μg/ml | reciprocal number of concentration of the compound at 50% cell viability (HIV [2]; 1 hour after i.v. injection): 145; reciprocal number of concentration of the compound at 50% cell viability (HIV [2]; 4 hours after i.v. injection): 94; reciprocal number of concentration of the compound at 50% cell viability (HIV [2]; 6 hours after i.v. injection): 60; reciprocal number of concentration of the compound at 50% cell viability (HIV [2]; 12 hours after i.v. injection): 48; detection/duration of activity in serum (HIV [2]; mouse, i.v., Compound 6 32 mg/kg up to 12 hours, dextran sulfate 80 mg/kg up to 60 min): detected at a high concentration; comparing strength of effects on blood clotting (rabbit blood; at the concentration of more than 0.1%): dextran sulfate>1>6; clotting time (rabbit blood; 0.01%): 7.4 ± 0.6 min; clotting time (rabbit blood; 0.1%): 7.4 ± 0.6 min; clotting time (rabbit blood; 1.0%): 21.1 ± 1.7 min
Sulfated dl-α-tocopheryl O-2,4-difluorobenzoyl-β-D-galactosyl-(1→4)-β-D-galactosyl-(1→4)-β-D-glucoside [Compound 43] | 3.3 | 195 |  | 644 µg/mL | 
Sulfated 4-t-octylphenyl O-n-octanoyl-β-D-laminaripentaoside [Compound 27] | 0.63 | > 1,587 |  |  | CC50 (MT-4 cells; human, mt-4 cells, 120 h): > 1,000 μg/ml
